Data set [1] has as its system type I BMP receptors, namely, ALK2, ALK3, and ALK6. Conditions: cited from earlier work.
The test system of another data set is BMP signaling. The following applies: in vivo; cited from earlier work.
In the next data set the test system is MAPK p38 activation. The following applies: cited from earlier work.
Data set [2] relates to osteogenic differentiation induced by BMP4 or BMP6. The following applies: induced by BMP4 or BMP6 in vitro; compared with noggin; cited from earlier work.
Data set [3] relates to BMP-mediated SMAD 1, 5 and 8 phosphorylation. The following applies: cited from earlier work.
For another data set, the system named is hepatocyte proliferation. Kind of data set: BrdU hepatocyte proliferation after 2/3 hepatectomy in mice treated with dorsomorphin. It is filed as in vivo. The following applies: 8 week old mice, dorsomorphin 10 mg/kg vs saline, injected 24 and 12 h prior to, at, and 12, 24, 36 h after 2/3 hepatectomy; measured at 36 and 48 hours. The protocol:
Animals were used to examine the role of various members of BMP signaling in restoration of liver mass after injury. Mice were subjected to two-thirds (“⅔”) or massive eighty percent (80%) hepatectomy. Surgery was performed on adult mice at least 8 weeks of age. For surgery, mice were anesthetized with 100 mg/kg ketamine and 10 mg/kg xylazine which were injected intraperitoneally. […] This was repeated until the subject was unconscious. Hair was removed from the surgical site using a clipper and the skin was disinfected using aseptic technique and betadyne. The scrubbed area was rinsed with 70% alcohol. To avoid hypothermia, the animal was not wetted more than necessary. An incision was made with a sterile scissors at the level of the xiphiod approximately one centimeter toward the umbilicus. The peritoneum was entered with a scissors and the tip of the xiphoid was excised. For ⅔ hepatectomy, the liver was exteriorized through the incision via gentle pressure on the flanks over an area previously prepped. A 4-0 silk ligature was placed around the exteriorized portion of the liver and tied. The anterior portion of the liver distal to the tie was then excised. A 4-0 proline was used to close the fascia and a 4-0 nylon was used to close the skin in a subcuticular fashion. […]

Data set [4] can be described thus: Systemic toxicity of dorsomorphin administration for up to 60 days.
Experimental: To provide clinical relevance for the findings discussed above, eight week old mice were injected with an antagonist of BMP signaling. Dorsomorphin was injected for 48 hours prior to, during, and after ⅔ hepatectomy. Specifically, dorsomorphin was injected multiple times at 24 and 12 hours prior to hepatectomy, at the time of hepatectomy, and 12, 24, and 36 hours after hepatectomy.

On to `c1cc(-c2cnn3cc(-c4ccc(OCCN5CCCCC5)cc4)cnc23)ccn1` [Dorsomorphin], for which the “inhibition of type I BMP receptors ALK2, ALK3, and ALK6” value in data set [1] is recorded as “selectively inhibiting”. Moreover, the “dorsalization in zebrafish embryos” value in the data set with BMP signaling is given as “effectively promote dorsalization”. For the same molecule, in the data set with MAPK p38 activation, the “MAPK p38 activation” value is recorded as “without affecting”. Also, the “inhibition of osteogenic differentiation” value in data set [2] is “more potent than that seen with treatment with noggin”. Besides, the “BMP-mediated SMAD 1, 5 and 8 phosphorylation” value in data set [3] is reported as “block”. For the same molecule, the “hepatocyte proliferation (BrdU incorporation)” value in the data set with hepatocyte proliferation is given as “marked enhancement of hepatocyte proliferation”. Moreover, in data set [4], the “effect on bone marrow” value is “no effect”, the effect on growth entry was “no effect”, the “effect on white blood cell count” value is recorded as “no effect” and the systemic toxicity result is reported as “did not produced systemic toxicity”.
